Results: patent US20240041856A1, “LIQUID APIXABAN FORMULATION IN SMALL DOSE VOLUME” (DAFECHEM LIMITED, priority 2020, published 2024)

Assays:
[1] = Solubility of apixaban in propylene glycol based vehicles; assay type: physicochemical
Experimental: (§1) However, for achieving solutions of apixaban with concentration of more than 0.5 mg/mL in a vehicle comprising at least 35% (w/v) propylene glycol based on the total formulation, heating within the range of 25-90° C. is applied so to achieve full and quick solubilization of apixaban.
Concentrated solutions of apixaban are necessary in order to achieve low dosage volumes. The temperature of the mixture of apixaban and optionally co-solvents can be up to 90° C.

[2] = Stability of apixaban in propylene glycol on heating; assay type: physicochemical; details: temperature increase up to 90° C.
Experimental: as §1

Dissolution of apixaban in the vehicle ([1]; 0.25 mg/mL apixaban, vehicle with at least 35% (w/v) propylene glycol, room temperature): dissolves freely
Most concentrated apixaban solutions prepared ([1]; dissolving at temperature up to 90° C. in at least 35% (w/v) of propylene glycol): up to 10 mg/mL
Stability of apixaban in propylene glycol [2]: stable
SMILES: COc1ccc(-n2nc(C(N)=O)c3c2C(=O)N(c2ccc(N4CCCCC4=O)cc2)CC3)cc1 [Apixaban, 1-(4-methoxyphenyl)-7-oxo-6-[4-(2-oxopiperidin-1-yl)phenyl]-4,5,6,7-tetrahydro-1H-pyrazolo[3,4c]pyridine-3-carboxamide]
